Assays:
ECHCG [1] = assay: Post-emergence herbicidal effect against ECHCG; assay type: in vivo, Echinochloa crus-galli; details: one-leaf stage, 80 g/ha, assessed visually after about 3 weeks vs untreated controls, 100% = plants have died
Protocol: (§1) Seeds of monocotyledonous and dicotyledonous weed and crop plants are laid out in sandy loam soil in wood-fiber pots, covered with soil and cultivated in a greenhouse under good growth conditions. 2 to 3 weeks after sowing, the test plants are treated at the one-leaf stage. The compounds of the invention, formulated in the form of wettable powders (WP) or as emulsion concentrates (EC), are then sprayed onto the green parts of the plants as aqueous suspension or emulsion at a water application rate equating to 600 to 800 l/ha with addition of 0.2% wetting agent. After the test plants have been left to stand in the greenhouse under optimal growth conditions for about 3 weeks, the action of the preparations is assessed visually in comparison to untreated controls (herbicidal action in percent (%): 100% activity=the plants have died, 0% activity=like control plants).

LOLRI [2] = assay: Post-emergence herbicidal effect against LOLRI; assay type: in vivo, Lolium rigidum; details: one-leaf stage, 80 g/ha, assessed visually after about 3 weeks vs untreated controls, 100% = plants have died
Protocol: as §1

SETVI [3] = assay: Post-emergence herbicidal effect against SETVI; assay type: in vivo, Setaria viridis; details: one-leaf stage, 80 g/ha, assessed visually after about 3 weeks vs untreated controls, 100% = plants have died
Protocol: as §1

ALOMY [4] = assay: Pre-emergence herbicidal effect against ALOMY; assay type: in vivo, Alopecurus myosuroides; details: 320 g/ha, scored visually after 3 weeks vs untreated controls, 100% = plants have died
Source text: (§2) Seeds of monocotyledonous and dicotyledonous weed plants and crop plants are laid out in sandy loam soil in wood-fiber pots and covered with soil. The compounds of the invention, formulated in the form of wettable powders (WP) or as emulsion concentrates (EC), are then applied to the surface of the covering soil as aqueous suspension or emulsion at a water application rate equating to 600 to 800 L/ha with addition of 0.2% wetting agent.
(§3) After the treatment, the pots are placed in a greenhouse and kept under good growth conditions for the trial plants. The damage to the test plants is scored visually after a test period of 3 weeks by comparison with untreated controls (herbicidal activity in percent (%): 100% activity=the plants have died, 0% activity=like control plants).

SETVI [5] = assay: Pre-emergence herbicidal effect against SETVI; assay type: in vivo, Setaria viridis; details: 320 g/ha, scored visually after 3 weeks vs untreated controls, 100% = plants have died
Source text: as §2, §3

ALOMY [6] = assay: Post-emergence herbicidal effect against ALOMY; assay type: in vivo, Alopecurus myosuroides; details: one-leaf stage, 80 g/ha, assessed visually after about 3 weeks vs untreated controls, 100% = plants have died
Protocol: as §1

AVEFA [7] = assay: Post-emergence herbicidal effect against AVEFA; assay type: in vivo, Avena fatua; details: one-leaf stage, 80 g/ha, assessed visually after about 3 weeks vs untreated controls, 100% = plants have died
Protocol: as §1

DIGSA [8] = assay: Pre-emergence herbicidal effect against DIGSA; assay type: in vivo, Digitaria sanguinalis; details: 320 g/ha, scored visually after 3 weeks vs untreated controls, 100% = plants have died
Source text: as §2, §3

AVEFA [9] = assay: Pre-emergence herbicidal effect against AVEFA; assay type: in vivo, Avena fatua; details: 320 g/ha, scored visually after 3 weeks vs untreated controls, 100% = plants have died
Source text: as §2, §3

LOLRI [10] = assay: Pre-emergence herbicidal effect against LOLRI; assay type: in vivo, Lolium rigidum; details: 320 g/ha, scored visually after 3 weeks vs untreated controls, 100% = plants have died
Source text: as §2, §3

DIGSA [11] = assay: Post-emergence herbicidal effect against DIGSA; assay type: in vivo, Digitaria sanguinalis; details: one-leaf stage, 80 g/ha, assessed visually after about 3 weeks vs untreated controls, 100% = plants have died
Protocol: as §1

ECHCG [12] = assay: Pre-emergence herbicidal effect against ECHCG; assay type: in vivo, Echinochloa crus-galli; details: 320 g/ha, scored visually after 3 weeks vs untreated controls, 100% = plants have died
Source text: as §2, §3

| Compound | Post-emergence action [%] against ECHCG (ECHCG [1]) [%] | Post-emergence action [%] against LOLRI (LOLRI [2]) [%] | Post-emergence action [%] against SETVI (SETVI [3]) [%] | Pre-emergence action [%] against ALOMY (ALOMY [4]) [%] | Pre-emergence action [%] against SETVI (SETVI [5]) [%] | Post-emergence action [%] against ALOMY (ALOMY [6]) [%] | Post-emergence action [%] against AVEFA (AVEFA [7]) [%] | Pre-emergence action [%] against DIGSA (DIGSA [8]) [%] | Pre-emergence action [%] against AVEFA (AVEFA [9]) [%] | Pre-emergence action [%] against LOLRI (LOLRI [10]) [%] | Post-emergence action [%] against DIGSA (DIGSA [11]) [%] | Pre-emergence action [%] against ECHCG (ECHCG [12]) [%] |
| --- | --- | --- | --- | --- | --- | --- | --- | --- | --- | --- | --- | --- |
| CC#Cc1cc(Br)c(C2=C(O)C3(CCCC(OCCOC)C3)NC2=O)c(CC)c1 (centres unmarked) [Example D8] | 90 | 80 | 90 | 80 | 100 | 100 | 80 | – | – | – | – | – |
| CC#Cc1cc(C)c(C2=C(OC(=O)C(C)C)C3(CCC(CC)CC3)NC2=O)c(Cl)c1 (centres unmarked) [Example P1, 3-[2-Chloro-6-methyl-4-(prop-1-yn-1-yl)phenyl]-8-ethyl-2-oxo-1-azaspiro[4.5]dec-3-en-4-yl 2-methylpropanoate] | – | – | 100 | – | – | – | – | – | – | – | – | – |
| CC#Cc1cc(Cl)c(C2=C(OC(=O)OCC)C3(CCC(OCC)CC3)NC2=O)c(CC)c1 (centres unmarked) [Example P22] | 90 | – | 100 | 100 | 100 | – | – | 100 | 90 | 100 | 90 | 100 |
| CC#Cc1cc(Cl)c(C2=C(OC(=O)OCC)C3(CCC(OCCOC)CC3)NC2=O)c(CC)c1 (centres unmarked) [Example P23] | – | – | 80 | 100 | 100 | 80 | – | 100 | 80 | 100 | – | 100 |
| CC#Cc1cc(Cl)c(C2=C(OC(=O)C(C)C)C3(CCC(OC)CC3)NC2=O)c(CC)c1 (centres unmarked) [Example P25] | 100 | – | 100 | 100 | 100 | 90 | – | 100 | 100 | 90 | 100 | 100 |
| CC#Cc1cc(Cl)c(C2=C(OC(=O)OC)C3(CCC(OCC)CC3)NC2=O)c(CC)c1 (centres unmarked) [Example P26] | 100 | – | 90 | 100 | 100 | 90 | – | 100 | 90 | 100 | 80 | 90 |
| CC#Cc1cc(Cl)c(C2=C(OC(=O)OC)C3(CCC(OCCOC)CC3)NC2=O)c(CC)c1 (centres unmarked) [Example P28] | 80 | – | 80 | 100 | 100 | – | – | 100 | 80 | – | – | 100 |
| CC#Cc1cc(Cl)c(C2=C(OC(=O)OC(C)(C)C)C3(CCC(OCCOC)CC3)NC2=O)c(CC)c1 (centres unmarked) [Example P29] | 90 | – | 90 | 80 | 80 | – | – | 90 | 80 | – | – | 90 |
| CC#Cc1cc(Cl)c(C2=C(OC(=O)OC(C)(C)C)C3(CCC(OC)CC3)NC2=O)c(CC)c1 (centres unmarked) [Example P30] | – | – | 100 | 100 | 100 | 90 | 80 | 100 | 80 | 100 | – | 90 |
| CC#Cc1cc(Cl)c(C2=C(OC(=O)C(C)C)C3(CCC(OCC)CC3)NC2=O)c(CC)c1 (centres unmarked) [Example P31] | – | – | 100 | 100 | 100 | 100 | – | 100 | 90 | 100 | – | 100 |
| CC#Cc1cc(Cl)c(C2=C(OC(=O)C(C)C)C3(CCC(OCCOC)CC3)NC2=O)c(CC)c1 (centres unmarked) [Example P32] | – | – | 90 | 100 | 100 | – | – | 90 | – | 90 | – | 100 |
| CC#Cc1cc(Cl)c(C2=C(OC(=O)OCC)C3(CCC(OC)CC3)NC2=O)c(C2CC2)c1 (centres unmarked) [Example P33] | 100 | 100 | 100 | 100 | 100 | 100 | 100 | 100 | 100 | 100 | – | 100 |
| CC#Cc1cc(Br)c(C2=C(OC(=O)OCC)C3(CCC(OC)CC3)NC2=O)c(CC)c1 (centres unmarked) [Example P34] | 90 | – | 100 | – | 100 | 100 | – | – | – | – | – | – |
| CC#Cc1cc(Br)c(C2=C(OC(=O)OCC)C3(CCC(OC)CC3)NC2=O)c(C2CC2)c1 (centres unmarked) [Example P35] | 100 | 100 | 100 | 100 | 100 | 100 | – | 100 | 100 | 100 | 100 | 100 |
| CC#Cc1cc(Br)c(C2=C(OC(=O)OCC)C3(CCCC(OCCOC)C3)NC2=O)c(CC)c1 (centres unmarked) [Example Q1] | – | – | 90 | 90 | 100 | 80 | – | – | – | 90 | – | – |
| CC#Cc1cc(Br)c(C2=C(OC(=O)OCC)C3(CCCC(OCCOC)C3)NC2=O)c(C2CC2)c1 (centres unmarked) [Example Q2] | 100 | 100 | 100 | 100 | 100 | 100 | – | 100 | 100 | 100 | 100 | 100 |
| CC#Cc1cc(C)c(C2=C(OC(=O)OCC)C3(CCCC(OCCC)C3)NC2=O)c(Br)c1 (centres unmarked) [Example Q3] | 100 | 100 | 100 | 100 | 100 | 100 | – | 100 | 100 | 100 | 100 | 100 |
| CC#Cc1cc(C)c(C2=C(OC(=O)OC(C)(C)C)C3(CCCC(OCC(C)C)C3)NC2=O)c(Cl)c1 (centres unmarked) [Example Q7] | – | – | – | 80 | 100 | – | – | – | – | – | – | – |
